This is an account of results in patent US7815905B2, “Methods of increasing insulin sensitivity or decreasing insulin secretion by administering corticotropin releasing factor receptor-2 inhibitors” (Research Development Foundation, priority 2006, dated 2010).

Entries after “also recorded” stand apart in the source; their conditions may differ. Ends that are not written are not given here.

Experiment [1] has as its system insulin signaling in C2C12 myotubes. The experiment can be described thus: Phosphorylation studies of insulin signaling in C2C12 myotubes. The following applies: pretreatment with the PKA inhibitor. It counts as cell-based. As for the experimental part: FIG. 3a-l: Urocortin 2 effects on muscle glucose uptake are mediated by inhibition of insulin signaling. (a-f). Ucn 2 inhibits the insulin-induced Akt and ERK1/2 phosphorylation but not the insulin receptor phosphorylation. Differentiated C2C12 myotubes were pre-incubated with or without Ucn 2 peptide (0.1, 1 or 10 nM) for 1 hour prior to insulin treatment (10 nM, 5 min). Cell lystates were resolved using 4-12% gradient polyacrylamide gels. Gels were electrophorectically transferred to membranes and probed with antibodies specific for the phospho proteins pAkt (Ser 473), pERK1/2 or pIR (Tyr1146). Stimulation of Akt, ERK or insulin receptor (IR) activation was calculated by fold activation of the phosphorylated form normalized to total and compared with the untreated controls (a, d and f, graphs). […] (g-j) Ucn 2 treatment increases the phosphorylation of serine residue 307 and not the tyrosin phosphorylation of IRS-1. Myotube cells, treated with or without PKA inhibitor (H-89), were incubated with insulin and different concentrations of Ucn 2. IRS-1 immunoprecipitated proteins were electrophoresed as before and the immunoblots were probed for phosphorylated tyrosin (g), phosphorylated serine 307 IRS-1 (i) and total IRS-1 (g, i). […] (k) The effect of Ucn 2 on [^3H]2-deoxy-D-glucose uptake in differentiated C2C12 myotubes. Cells were incubated for 2 hours in low glucose, serum free medium and treated with Ucn 2 (0.1, 1 or 10 nM) or without (control) for 30 min prior to insulin administration (10 nM). Glucose uptake was measured 5 min following exposure to [^3H]2-deoxy-D-glucose. Non-specific uptake was measured by incubating muscle tissue with cytochalasin B, which binds to the glucose uptake transporter (GLUT) and inhibits glucose transport into the cell. Specific uptake was calculated by subtracting non specific from total glucose. (l) Schematic representation of the putative cellular mechanisms mediating the effect of Ucn 2 and CRFR2 on the insulin signaling and glucose uptake in skeletal muscle cells. * indicates p<0.05 vs. no treatment. # indicates p<0.05 vs. insulin treatment (b, d, f) or p<0.05 vs. insulin treatment and Ucn 2 (i).
Differentiated C2C12 myotubes were pre-incubated with or without Ucn 2 peptide (0.1, 1 or 10 nM) for 1 hour prior to insulin treatment (10 nM, 5 min). Cells were harvested immediately in 100 μl of sample treatment buffer [STB, 50 mM Tris (pH 6.8), 100 mM dithiothreitol, 2% (wt/vol) sodium dodecyl sulfate, 0.1% (wt/vol) bromphenol blue, and 10% (wt/vol) glycerol]. The samples were boiled for 5 min, proteins were electrophoresed on 4-12% sodium dodecyl sulfate-polyacrylamide gradient gel (Invitrogen Life Technologies), subsequently transferred onto nitrocellulose membranes, and probed with antibodies specific for phosphorylated Akt (Ser 473, Cell Signaling Technology, Inc., Beverly, Mass.), phosphorylated ERK1/2-p42, 44 (Santa Cruz Biotechnology, Inc., Santa Cruz, Calif.), phosphorylated insulin receptor (Tyr 1146, Cell Signaling Technology, Inc.), or phosphorylated IRS1 (Ser 307, Upstate Cell Signaling Solutions, Lake placid, NY). The membranes were washed with phosphate buffer saline containing 0.05% (vol/vol) Tween 20 and incubated with horseradish peroxidase-conjugated anti mouse or rabbit IgG raised in sheep (Amersham Biotech Pharmacia). Immunoreactive proteins were visualized using Super Signal West Pico Chemiluminescent substrate (Pierce, Rockford, Ill.). The relative protein levels were determined using densitometry (Image quant 1.2) by probing the membranes with antibodies directed against total proteins.

For experiment [2], the system named is MIN6 cells. As to the kind of experiment: Ucn 3 secretion from MIN6 cells (Ucn 3 RIA). It counts as cell-based, mouse. The following applies: for Ucn 3 secretion in the presence of 2.8 mM glucose / Ucn 3 release in the presence of 10 mM glucose: 2 h at 37° C. An excerpt:
FIG. 8a-e: Elevation of pancreatic Ucn 3 expression in diabetic rodent models and stimulation of Ucn 3 release from β cells by glucose. (a) Representative agarose gel electrophoresis showing Ucn 3 and S-16 (control) PCR products. (b) Summary of Ucn 3 expression in ob/ob obese mice and the wildtype (WT) littermates. *: p<0.05 vs WT. (c) Ucn 3 mRNA levels in the pancreas of high fat fed rats (HF) and chow fed controls (Ctrl). *: p<0.05 vs Ctrl. (d) Ucn 3 secretion from MIN6 cells in response to various glucose concentrations. (e) Ucn 3 release from MIN6 cells, in response to glucose and/or insulin secretagogues.
Ucn 3 secretion from P cells was studied using a mouse clonal P cell line, MIN6, as a model. For these studies MIN6 cells (Miyazaki et al., 1990) were cultured in DMEM supplemented with 10% fetal bovine serum (FBS), and 114 μm β-mercaptoethanol. To assess Ucn 3 secretion, the cells were seeded in 6-well plates and allowed to recover for 48 hrs. The cells were then washed twice with HEPES-balanced Krebs-Ringer bicarbonate buffer (HKRB) containing 5 mM glucose and 0.2% BSA and were incubated in HKRB with various testing reagents for 2 h at 37° C. The incubation buffer was collected and vacuum-dried for Ucn 3 RIA. Exendin-4 and diazoxide and carbachol were purchased from Phoenix Pharmaceuticals (Belmont, Calif.), and Sigma (St. Louis, Mo.), respectively. […] The effect of glucose on Ucn 3 secretion plateaued at 16.8 mM.

In experiment [3] the test system is isolated rat islets. As to the kind of experiment: Insulin secretion from isolated rat islets. The conditions noted are these: 10 nM in the presence of 8.4 mM glucose. It is filed as cell-based. As for the experimental part: FIG. 4a-b: The effect of CRFR2 antagonist on insulin secretion in isolated rat islets. (a) The effect of astressin2B (Ast2-B) on insulin secretion in response to glucose in isolated rat islets. […] The asterisk indicates a statistically significant difference between results from the control versus Ast2-B. (b) Isolated rat isles were pre-treated with anti-Ucn 3 IgG or control IgG followed by addition of indicated concentration of glucose. Y-axis indicates insulin secretion from the treated islets. The double asterisks indicate a statistically significant difference between the indicated treatments. […]
To assess the effect of CRFR2 antagonism on islet cell function secretion of insulin from isolated rat islets was studied. […] Thus, activation of CRFR2 by endogenous ligands is involved in insulin secretion induced by high levels of glucose.
In order to determine the role of Ucn 3 in glucose induced insulin secretion, isolated rat islets were pretreated with an anti-Ucn 3 IgG prior to glucose treatment.

Experiment [4] concerns C57/B6 mice fed with high fat diet. The experiment can be described thus: Ucn 3 treatment of high fat diet fed mice. It is filed as in vivo, mouse. The following applies: high fat diet 16 weeks; 30 μg/kg i.p. for 6 days; vs vehicle. As for the experimental part:
FIG. 6: The in vivo effect of Ucn 3 on insulin levels and blood glucose in a mouse model of type 2 diabetes. Wild-type mice were fed a high fat diet for 16 weeks to induce hyperglycemia. The mice were then injected for six days with vehicle alone or vehicle plus 30 μg/Kg of Ucn 3. Following treatment serum glucose (left panel) and serum insulin levels (right panel were determined.
To directly assess the in vivo activity of Ucn 3 in this model system C57/B6 mice were fed with high fat diet (45% Kcal) for 16 weeks. The mice were then injected i.p. with either vehicle or mouse Ucn 3 (30 μg/kg) for 6 days. […] These studies confirm the role of Ucn 3 in mediating increased insulin response to high blood sugar.

With `O=S(=O)(NCCNC/C=C/c1ccc(Br)cc1)c1cccc2cnccc12` [H-89], the “phosphorylation of IRS-1 on S307 by Ucn 2” value in experiment [1] is on record as “completely blocked”.

`C[N+](C)(C)CCOC(N)=O` [carbachol]: in experiment [2], the “Ucn 3 secretion in the presence of 2.8 mM glucose” value was “minimal or moderate” and the “Ucn 3 release in the presence of 10 mM glucose” value is recorded as “significantly stimulated”.

As for `CC1=NS(=O)(=O)c2cc(Cl)ccc2N1` [diazoxide], in experiment [2] (pretreatment, 100 μM), the “glucose-induced Ucn 3 secretion” value is listed as “effectively blocked”.

Take Exendin-4: a long acting GLP-1 analogue: the “insulin release from isolated islets” value in experiment [3] is on record as “significantly stimulated; also recorded: stimulated insulin release”. For the same compound, in experiment [2], the “Ucn 3 secretion in the presence of 2.8 mM glucose” value was “minimal or moderate” and the “Ucn 3 release in the presence of 10 mM glucose” value is recorded as “significantly stimulated”.

Regarding “Ucn 3: Urocortin 3, CRF family member acting as CRFR2 agonist; mouse Ucn 3 (SEQ ID NO:3) (FTLSLDVPTNIMNILFNIDKAKNLRAKAAANAQLMAQI; ends and bridges not checked; listed as Mus musculus)”, in experiment [4], the glucose levels entry is reported as “significantly lower glucose levels” and the insulin levels entry is given as “higher insulin levels compared to the control, though the difference was not statistically significant”.
